# Source: patent publication US6914045B2, “Glycopeptide antibiotics” (Wyeth Holdings Corporation, priority 2001, dated 2005)
# Experiments:
# Assay in all cases: in vitro antibacterial evaluation, MIC by broth dilution
# Type in all cases: cell-based
# Enterococcus sp. = conditions: broth dilution, 18 hours at 35° C.; for MIC Enterococcus faecalis (ATCC 29212): strain ATCC 29212; for MIC Enterococcus faecalis (GC 2242): strain GC 2242; for MIC Enterococcus faecium (GC 2243): strain GC 2243; for MIC Enterococcus faecalis (GC 2691): strain GC 2691; for MIC Enterococcus faecalis (GC 3059): strain GC 3059; for MIC Enterococcus faecalis (GC 4552): strain GC 4552; for MIC Enterococcus faecalis (GC 4553): strain GC 4553; for MIC Enterococcus faecalis (GC 4554): strain GC 4554; for MIC Enterococcus faecium (GC 4556): strain GC 4556; for MIC Enterococcus faecium (GC 4557): strain GC 4557; for MIC Enterococcus avium (GC 4558): strain GC 4558; for MIC Enterococcus faecalis (GC 6189): strain GC 6189
# Outline: (§1)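 MIC = lowest antibiotic concentration preventing visible growth; inoculum 5×10^5 CFU/mL; drug range 64-0.06 μg/mL; Muller-Hinton II […]; NCCLS M7-A2 guidance.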
# Escherichia coli = tested on: Escherichia coli
# Outline: as §1
# Staphylococcus sp. = conditions: broth dilution, 18 hours at 35° C.; for MIC Staphylococcus aureus (GC 1131): strain GC 1131
# Outline: as §1
# Streptococcus sp. = conditions: broth dilution, 18 hours at 35° C.; for MIC Streptococcus pneumoniae (ATCC 6301): strain ATCC 6301; for MIC Streptococcus pneumoniae (GC 1894): strain GC 1894; for MIC Streptococcus pyogenes (GC 4563): strain GC 4563; for MIC Streptococcus agalactiae (GC 4564): strain GC 4564; for MIC Streptococcus pneumoniae (GC 4565): strain GC 4565
# Outline: as §1
smiles,measurement,setting,value
CC(c1ccccc1)C1NC(=O)CNC(=O)C(CO)NC(=O)C(C(O)C2CNC(=N)N2C2OC(CO)C(O)C(O)C2O)NC(=O)C(C(O)C2CNC(=N)N2)NC(=O)C(Cc2ccc(OC3OC(CO)C(OC4OC5COC(c6ccc(C(=O)c7ccccc7)cc6)OC5C(O)C4O)C(O)C3O)cc2)NC1=O (centres unmarked) [Example 173],MIC Enterococcus faecalis (ATCC 29212),Enterococcus sp.; inoculum 5×10^5 CFU/mL,1 µg/mL
same,MIC Enterococcus faecalis (GC 2242),Enterococcus sp.; inoculum 5×10^5 CFU/mL,2 µg/mL
same,MIC Enterococcus faecium (GC 2243),Enterococcus sp.; inoculum 5×10^5 CFU/mL,2 µg/mL
same,MIC Enterococcus faecalis (GC 2691),Enterococcus sp.; inoculum 5×10^5 CFU/mL,2 µg/mL
same,MIC Enterococcus faecalis (GC 3059),Enterococcus sp.; inoculum 5×10^5 CFU/mL,2 µg/mL
same,MIC Enterococcus faecalis (GC 4552),Enterococcus sp.; inoculum 5×10^5 CFU/mL,2 µg/mL
same,MIC Enterococcus faecalis (GC 4553),Enterococcus sp.; inoculum 5×10^5 CFU/mL,2 µg/mL
same,MIC Enterococcus faecalis (GC 4554),Enterococcus sp.; inoculum 5×10^5 CFU/mL,2 µg/mL
same,MIC Enterococcus faecium (GC 4556),Enterococcus sp.; inoculum 5×10^5 CFU/mL,1 µg/mL
same,MIC Enterococcus faecium (GC 4557),Enterococcus sp.; inoculum 5×10^5 CFU/mL,2 µg/mL
same,MIC Enterococcus avium (GC 4558),Enterococcus sp.; inoculum 5×10^5 CFU/mL,1 µg/mL
same,MIC Enterococcus faecalis (GC 6189),Enterococcus sp.; inoculum 5×10^5 CFU/mL,1 µg/mL
same,MIC Enterococcus faecalis (ATCC 29212),Enterococcus sp.,1 µg/mL
same,MIC Enterococcus faecalis (GC 2242),Enterococcus sp.,2 µg/mL
same,MIC Enterococcus faecium (GC 2243),Enterococcus sp.,2 µg/mL
same,MIC Enterococcus faecalis (GC 2691),Enterococcus sp.,2 µg/mL
same,MIC Enterococcus faecalis (GC 3059),Enterococcus sp.,2 µg/mL
same,MIC Enterococcus faecalis (GC 4552),Enterococcus sp.,2 µg/mL
same,MIC Enterococcus faecalis (GC 4553),Enterococcus sp.,2 µg/mL
same,MIC Enterococcus faecalis (GC 4554),Enterococcus sp.,2 µg/mL
same,MIC Enterococcus faecium (GC 4556),Enterococcus sp.,1 µg/mL
same,MIC Enterococcus faecium (GC 4557),Enterococcus sp.,2 µg/mL
same,MIC Enterococcus avium (GC 4558),Enterococcus sp.,1 µg/mL
same,MIC Enterococcus faecalis (GC 6189),Enterococcus sp.,1 µg/mL
same,MIC Escherichia coli (ATCC 25922),"Escherichia coli; strain ATCC 25922, 18 hours at 35° C.",32 µg/mL
same,MIC Escherichia coli (GC 4559),"Escherichia coli; strain GC 4559, 18 hours at 35° C.",16 µg/mL
same,MIC Escherichia coli (GC 4560),"Escherichia coli; strain GC 4560, 18 hours at 35° C.",0.5 µg/mL
same,MIC Staphylococcus aureus (GC 1131),Staphylococcus sp.; inoculum 5×10^5 CFU/mL,2 µg/mL
same,MIC Staphylococcus aureus (ATCC 29213),Staphylococcus sp.; strain ATCC 29213,1 µg/mL
same,MIC Staphylococcus aureus (GC 1131),Staphylococcus sp.,2 µg/mL
same,MIC Staphylococcus aureus (GC 3051),Staphylococcus sp.; strain GC 3051,0.5 µg/mL
same,MIC Staphylococcus aureus (GC 3053),Staphylococcus sp.; strain GC 3053,1 µg/mL
same,MIC Staphylococcus aureus (GC 4541),Staphylococcus sp.; strain GC 4541,0.5 µg/mL
same,MIC Staphylococcus aureus (GC 4542),Staphylococcus sp.; strain GC 4542,0.5 µg/mL
same,MIC Staphylococcus aureus-SMITH (GC 4543),Staphylococcus sp.; strain GC 4543,0.5 µg/mL
same,MIC Staphylococcus aureus (GC 4544),Staphylococcus sp.; strain GC 4544,2 µg/mL
same,MIC Staphylococcus aureus (GC 4545),Staphylococcus sp.; strain GC 4545,2 µg/mL
same,MIC Staphylococcus haemolyticus (GC 4546),Staphylococcus sp.; strain GC 4546,1 µg/mL
same,MIC Coagulase Negative Staphylococcus (GC 4547),Staphylococcus sp.; strain GC 4547,2 µg/mL
same,MIC Coagulase Negative Staphylococcus (GC 4548),Staphylococcus sp.; strain GC 4548,0.5 µg/mL
same,MIC Coagulase Negative Staphylococcus (GC 4549),Staphylococcus sp.; strain GC 4549,0.25 µg/mL
same,MIC Coagulase Negative Staphylococcus (GC 4551),Staphylococcus sp.; strain GC 4551,0.5 µg/mL
same,MIC Coagulase Negative Staphylococcus (GC 6257),Staphylococcus sp.; strain GC 6257,0.5 µg/mL
same,MIC Streptococcus pneumoniae (ATCC 6301),Streptococcus sp.; inoculum 5×10^5 CFU/mL,<0.12 µg/mL
same,MIC Streptococcus pneumoniae (GC 1894),Streptococcus sp.; inoculum 5×10^5 CFU/mL,<0.12 µg/mL
same,MIC Streptococcus pyogenes (GC 4563),Streptococcus sp.; inoculum 5×10^5 CFU/mL,<0.12 µg/mL
same,MIC Streptococcus agalactiae (GC 4564),Streptococcus sp.; inoculum 5×10^5 CFU/mL,<0.12 µg/mL
same,MIC Streptococcus pneumoniae (GC 4565),Streptococcus sp.; inoculum 5×10^5 CFU/mL,<0.12 µg/mL
same,MIC Streptococcus pneumoniae (ATCC 6301),Streptococcus sp.,<0.12 µg/mL
same,MIC Streptococcus pneumoniae (GC 1894),Streptococcus sp.,<0.12 µg/mL
same,MIC Streptococcus pyogenes (GC 4563),Streptococcus sp.,<0.12 µg/mL
same,MIC Streptococcus agalactiae (GC 4564),Streptococcus sp.,<0.12 µg/mL
same,MIC Streptococcus pneumoniae (GC 4565),Streptococcus sp.,<0.12 µg/mL
